Values joined by “and” are separate entries in the source; they are usually repeats but may differ in a detail not shown here. Equal values may be shown once. Active and inactive are the calls of the source.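 Rule for the calls: active = fitted curve reaching 40% activation, where positive control equals 100, at or below the top valid dose; inconclusive = flat curve between 30 and 70% activation, or a poor fit; inactive = the rest, including activity in the opposite direction.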
biological target: Hypoxia-inducible factor 1-alpha (Homo sapiens) (UniProt Q16665); assay: HIF1A nuclear translocation activators in U2OS – imaging, U2OS GFP-HIF1alpha, high content, dry powder, set 2, orthogonal assay for HIF activator project, dose response (AID 493225); details: U2OS GFP-HIF1alpha nuclear intensity imaging
Sequence (Q16665 whole entry, looked up): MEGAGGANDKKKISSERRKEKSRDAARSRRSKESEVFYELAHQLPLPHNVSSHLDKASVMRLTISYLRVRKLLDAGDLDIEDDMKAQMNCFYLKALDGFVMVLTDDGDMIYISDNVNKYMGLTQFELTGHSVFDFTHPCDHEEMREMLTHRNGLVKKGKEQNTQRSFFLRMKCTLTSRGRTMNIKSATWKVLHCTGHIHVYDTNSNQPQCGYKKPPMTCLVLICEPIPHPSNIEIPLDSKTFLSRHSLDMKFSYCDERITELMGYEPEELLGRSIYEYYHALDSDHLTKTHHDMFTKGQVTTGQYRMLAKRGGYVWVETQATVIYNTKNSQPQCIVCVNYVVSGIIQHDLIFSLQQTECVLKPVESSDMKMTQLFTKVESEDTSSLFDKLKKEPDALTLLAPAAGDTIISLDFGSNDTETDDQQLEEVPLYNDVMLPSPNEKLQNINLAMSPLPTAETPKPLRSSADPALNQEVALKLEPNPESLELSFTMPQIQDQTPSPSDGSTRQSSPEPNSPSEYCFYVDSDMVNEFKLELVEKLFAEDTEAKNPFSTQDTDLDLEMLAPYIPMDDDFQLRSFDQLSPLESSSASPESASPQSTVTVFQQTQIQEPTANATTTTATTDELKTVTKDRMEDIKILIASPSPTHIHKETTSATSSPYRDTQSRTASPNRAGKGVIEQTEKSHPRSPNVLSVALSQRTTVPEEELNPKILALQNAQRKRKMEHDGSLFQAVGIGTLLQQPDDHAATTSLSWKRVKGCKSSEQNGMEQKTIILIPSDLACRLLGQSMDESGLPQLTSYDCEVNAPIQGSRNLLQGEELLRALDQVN

How did the AC40 turn out when Cc1cccc(CNc2nc(-c3ccccn3)nnc2-c2ccccc2)c1 was run?
Its AC40 is 1.31 µM.

How did the AC40 turn out when O=C(NC1Cc2ccccc2C1)c1cc(-c2ccccc2)on1 was run?
Its AC40 is > 38 µM (inactive).

c1ccc(-c2nnc(Nc3nc(-c4ccccn4)nnc3-c3ccccc3)s2)cc1 was tested. Which AC40 did it give?
Its AC40 is 13.7 µM.

With c1ccc(-c2nnc(-c3ccccn3)nc2NCC2CC2)cc1 as the compound, how does the AC40 read?
Its AC40 is 2.07 µM.

For c1ccc(-c2nnc(-c3ccccn3)nc2NCCc2ccccn2)cc1, which AC40 is on record?
The AC40 was 6.24 µM.

How did the AC40 turn out when OCCCNc1nc(-c2ccccn2)nnc1-c1ccccc1 was run?
Its AC40 is 10.8 µM.

How did the AC40 turn out when CN(C)c1nc(-c2ccccn2)nnc1-c1ccccc1 was run?
Its AC40 is 10.4 µM.

How did the AC40 turn out when c1ccc(-c2nnc(-c3ccccn3)nc2N2CCN(c3ccncc3)CC2)cc1 was run?
Its AC40 is 3.16 µM.

For OCC1CCN(Cc2ccc(O)c3ncccc23)CC1, which AC40 is on record?
Its AC40 is 3.69 µM.

For Cc1ccccc1CNc1nc(-c2ccccn2)nnc1-c1ccccc1, which AC40 is on record?
The AC40 was 0.628 µM.

Which AC40 does the source give for c1ccc(-c2nnc(-c3ccccn3)nc2N2CCC(N3CCOCC3)CC2)cc1 here?
Its AC40 is 5.88 µM.

With O=C(NCCN1CCOCC1)c1cc(-c2ccccc2)on1 as the compound, how does the AC40 read?
Its AC40 is 20.6 µM.

Which AC40 does the source give for CC(C)(C)OC(=O)N1CCN(Cc2ccc(O)c3ncccc23)CC1 here?
The AC40 was 23.8 µM.

Which AC40 does the source give for O=C(NCCCN1CCOCC1)c1cc(-c2ccccc2)on1 here?
The AC40 was 17.7 µM.

With COc1cccc(CNc2nc(-c3ccccn3)nnc2-c2ccccc2)c1 as the compound, how does the AC40 read?
The AC40 was 1.57 µM.

For Cc1ccc(Nc2nc(-c3ccccn3)nnc2-c2ccccc2)cn1, which AC40 is on record?
Its AC40 is 6.61 µM.

How did the AC40 turn out when CN1CCN(c2nc(-c3ccccn3)nnc2-c2ccccc2)CC1 was run?
Its AC40 is 5.53 µM.

With Oc1ccc(CN2CCC3CCCCC3C2)c2cccnc12 (configuration not stated) as the compound, how does the AC40 read?
Its AC40 is 5.14 µM.

How did the AC40 turn out when Cc1ccc(CNc2nc(-c3ccccn3)nnc2-c2ccccc2)cc1 was run?
Its AC40 is 0.727 µM.

C=CCNc1nc(-c2ccccn2)nnc1-c1ccccc1 was tested. Which AC40 did it give?
The AC40 was 4.73 µM.

Which AC40 does the source give for Oc1ccc(CN2CCC(Cc3ccccc3)CC2)c2cccnc12 here?
Its AC40 is 8.98 µM.

COc1ccc(CNc2nc(-c3ccccn3)nnc2-c2ccccc2)cc1 was tested. Which AC40 did it give?
Its AC40 is 1.09 µM.

For CCCCNC(=O)c1cc(-c2ccccc2)on1, which AC40 is on record?
The AC40 was 7.07 µM.

Which AC40 does the source give for c1ccc(-c2ccc(CNc3nc(-c4ccccn4)nnc3-c3ccccc3)cc2)cc1 here?
The AC40 was 0.164 µM.

c1ccc(-c2nnc(-c3ccccn3)nc2NCc2ccccn2)cc1 was tested. Which AC40 did it give?
The AC40 was 5.02 µM.

For Oc1ccc(CNC2CCc3ccccc32)c2cccnc12 (configuration not stated), which AC40 is on record?
Its AC40 is 13.5 µM.

How did the AC40 turn out when C[C@@H](Nc1nc(-c2ccccn2)nnc1-c1ccccc1)c1ccccc1 was run?
Its AC40 is 1.5 µM.

How did the AC40 turn out when c1ccc(-c2csc(Nc3nc(-c4ccccn4)nnc3-c3ccccc3)n2)cc1 was run?
Its AC40 is 1.05 µM.

For CC1CN(Cc2ccc(O)c3ncccc23)CC(C)O1 (configuration not stated), which AC40 is on record?
The AC40 was 20.8 µM.

For Cc1ccc(CNc2nc(-c3ccccn3)nnc2-c2ccccc2)cc1C, which AC40 is on record?
The AC40 was 0.736 µM.

Which AC40 does the source give for COc1ccccc1N1CCN(Cc2ccc(O)c3ncccc23)CC1 here?
Its AC40 is 14.8 µM.

Which AC40 does the source give for c1ccc(-c2nnc(-c3ccccn3)nc2NCC2CCOCC2)cc1 here?
The AC40 was 7.28 µM.

With c1ccc(-c2nnc(-c3ccccn3)nc2Nc2nc3ccccc3s2)cc1 as the compound, how does the AC40 read?
The AC40 was 0.491 µM.

With O=C(NC1CCc2ccccc2C1)c1cc(-c2ccccc2)on1 (configuration not stated) as the compound, how does the AC40 read?
Its AC40 is > 38 µM (inactive).

c1ccc(CNc2nc(-c3ccccn3)nnc2-c2ccccc2)cc1 was tested. Which AC40 did it give?
The AC40 was 1.93 µM.

c1ccc(-c2nnc(-c3ccccn3)nc2NCCN2CCOCC2)cc1 was tested. Which AC40 did it give?
Its AC40 is 8.15 µM.

Which AC40 does the source give for c1ccc(-c2cccc(CNc3nc(-c4ccccn4)nnc3-c3ccccc3)c2)cc1 here?
The AC40 was 0.359 µM.

Which AC40 does the source give for c1ccc(-c2nnc(-c3ccccn3)nc2NCC2CCCCC2)cc1 here?
Its AC40 is 0.801 µM.

Which AC40 does the source give for N#CC1(c2ccccc2)CCN(Cc2ccc(O)c3ncccc23)CC1 here?
The AC40 was 19.8 µM.

O=C(NCCCn1ccnc1)c1cc(-c2ccccc2)on1 was tested. Which AC40 did it give?
Its AC40 is 6.13 µM.

Which AC40 does the source give for O=C(NCC1CC1)c1cc(-c2ccccc2)on1 here?
Its AC40 is 15.4 µM.

For Cc1cccc(Nc2nc(-c3ccccn3)nnc2-c2ccccc2)n1, which AC40 is on record?
Its AC40 is 2.72 µM.

How did the AC40 turn out when Cc1ccc(NC(=O)c2cc(-c3ccccc3)on2)cn1 was run?
Its AC40 is > 38 µM (inactive).

With Oc1ccc(CN2CCc3ccccc3C2)c2cccnc12 as the compound, how does the AC40 read?
Its AC40 is 4.51 µM and 18.1 µM.

For c1ccc(CCNc2nc(-c3ccccn3)nnc2-c2ccccc2)cc1, which AC40 is on record?
The AC40 was 4.89 µM.

Which AC40 does the source give for c1ccc(-c2nnc(-c3ccccn3)nc2N2CCC(c3ccccc3)C2)cc1 (configuration not stated) here?
The AC40 was 0.689 µM.

For c1ccc(-c2nnc(-c3ccccn3)nc2NCc2cccnc2)cc1, which AC40 is on record?
Its AC40 is 4.19 µM.

For CC(C)(C)CCNc1nc(-c2ccccn2)nnc1-c1ccccc1, which AC40 is on record?
Its AC40 is 0.357 µM and 0.401 µM.

How did the AC40 turn out when C[C@H](Nc1nc(-c2ccccn2)nnc1-c1ccccc1)C1CCCCC1 was run?
The AC40 was 0.635 µM.

How did the AC40 turn out when O=C(Nc1nc2ccccc2s1)c1cc(-c2ccccc2)on1 was run?
The AC40 was 34.9 µM.

For O=C(NCCCO)c1cc(-c2ccccc2)on1, which AC40 is on record?
Its AC40 is 6.49 µM.

Which AC40 does the source give for Oc1ccc(CNC2Cc3ccccc3C2)c2cccnc12 here?
The AC40 was 5.59 µM.

CC(Nc1nc(-c2ccccn2)nnc1-c1ccccc1)c1ccccc1 (configuration not stated) was tested. Which AC40 did it give?
The AC40 was 1.1 µM.

How did the AC40 turn out when CC(C)(C)CCNC(=O)c1cc(-c2ccccc2)on1 was run?
Its AC40 is > 38 µM (inactive).

O=C(NCCCCO)c1cc(-c2ccccc2)on1 was tested. Which AC40 did it give?
Its AC40 is 1.89 µM.

With c1ccc(-c2nnc(-c3ccccn3)nc2N2CCC(C3CCCCC3)C2)cc1 (configuration not stated) as the compound, how does the AC40 read?
Its AC40 is 0.265 µM.

With Cn1c(-c2ccccc2)cnc1Nc1nc(-c2ccccn2)nnc1-c1ccccc1 as the compound, how does the AC40 read?
Its AC40 is > 13.5 µM (inactive).

Clc1cccc(CNc2nc(-c3ccccn3)nnc2-c2ccccc2)c1 was tested. Which AC40 did it give?
Its AC40 is 0.74 µM.

Which AC40 does the source give for CC(C)(C)c1ccc(CNc2nc(-c3ccccn3)nnc2-c2ccccc2)cc1 here?
Its AC40 is 0.249 µM.

How did the AC40 turn out when c1ccc(-c2nnc(-c3ccccn3)nc2NCCCN2CCOCC2)cc1 was run?
Its AC40 is 7.52 µM.

Which AC40 does the source give for C[C@@H](Nc1nc(-c2ccccn2)nnc1-c1ccccc1)C1CCCCC1 here?
The AC40 was 0.456 µM.

c1ccc(-c2cnc(Nc3nc(-c4ccccn4)nnc3-c3ccccc3)s2)cc1 was tested. Which AC40 did it give?
Its AC40 is 19.7 µM.

With c1ccc(-c2nnc(-c3ccccn3)nc2Nc2cnc3ccccc3n2)cc1 as the compound, how does the AC40 read?
Its AC40 is 1.94 µM.

With O=C(NCCN1CCCCC1)c1cc(-c2ccccc2)on1 as the compound, how does the AC40 read?
The AC40 was > 38 µM (inactive).

OCC1CCN(c2nc(-c3ccccn3)nnc2-c2ccccc2)CC1 was tested. Which AC40 did it give?
The AC40 was 11 µM.

same assay, conditions: U2OS GFP-HIF1alpha nuclear intensity imaging; at 38 µM (top of the series)

Which activation does the source give for O=C(Nc1cn2ccccc2n1)c1cc(-c2ccccc2)on1 here?
Its activation is 9.51% (inactive).

How did the activation turn out when O=C(Nc1ncc2ccccc2n1)c1cc(-c2ccccc2)on1 was run?
The activation was 10.3% (inactive).

CN(C)CCNC(=O)c1cc(-c2ccccc2)on1 was tested. Which activation did it give?
Its activation is 9.39% (inactive).

With O=C(c1cc(-c2ccccc2)on1)N1CCC(N2CCOCC2)CC1 as the compound, how does the activation read?
The activation was -1.88% (inactive).

Which activation does the source give for O=C(Nc1nnc(-c2ccccc2)s1)c1cc(-c2ccccc2)on1 here?
The activation was -3.81% (inactive).

For Cc1cccc(CNC(=O)c2cc(-c3ccccc3)on2)c1, which activation is on record?
The activation was 9.64% (inactive).

How did the activation turn out when Cc1ccc(CNC(=O)c2cc(-c3ccccc3)on2)cc1 was run?
Its activation is 7.41% (inactive).

With O=C(NCc1ccccc1)c1cc(-c2ccccc2)on1 as the compound, how does the activation read?
The activation was 5.64% (inactive).

Which activation does the source give for O=C(Nc1cnc2ccccc2c1)c1cc(-c2ccccc2)on1 here?
The activation was -3.02% (inactive).

Which activation does the source give for Cc1ccccc1CNC(=O)c1cc(-c2ccccc2)on1 here?
The activation was 3.19% (inactive).

Which activation does the source give for CN1CCN(C(=O)c2cc(-c3ccccc3)on2)CC1 here?
Its activation is -2.52% (inactive).

Which activation does the source give for O=C(c1cc(-c2ccccc2)on1)N1CCC(N2CCCC2)CC1 here?
The activation was 3.26% (inactive).

With O=C(Nc1ncc(-c2ccccc2)o1)c1cc(-c2ccccc2)on1 as the compound, how does the activation read?
The activation was -4.43% (inactive).

How did the activation turn out when O=C(c1cc(-c2ccccc2)on1)N1CCC(CO)CC1 was run?
The activation was -3.23% (inactive).

How did the activation turn out when O=C(Nc1ccc2ccccc2n1)c1cc(-c2ccccc2)on1 was run?
Its activation is -3.66% (inactive).

With O=C(NCC1CCCCC1)c1cc(-c2ccccc2)on1 as the compound, how does the activation read?
The activation was 8.55% (inactive).

For O=C(Nc1nc(-c2ccccc2)cs1)c1cc(-c2ccccc2)on1, which activation is on record?
The activation was 3.11% (inactive).

O=C(c1cc(-c2ccccc2)on1)N1CCc2cccnc21 was tested. Which activation did it give?
The activation was 3.77% (inactive).

Which activation does the source give for Cn1c(-c2ccccc2)cnc1NC(=O)c1cc(-c2ccccc2)on1 here?
The activation was 12.3% (inactive).

How did the activation turn out when Cc1cccc(NC(=O)c2cc(-c3ccccc3)on2)n1 was run?
The activation was 0.577% (inactive).

With Cn1c(NC(=O)c2cc(-c3ccccc3)on2)nc2ccccc21 as the compound, how does the activation read?
Its activation is -4.79% (inactive).

With O=C(c1cc(-c2ccccc2)on1)N1CCN(c2ccncc2)CC1 as the compound, how does the activation read?
Its activation is -1.92% (inactive).
